Assay [1] deals with T1, GDP-loaded kRas (1-169) G12C, C51S, C80L, C118S (Homo sapiens, UniProt P01116, C118S/C51S/C80L/G12C).
T1 construct: GDP-loaded kRas (1-169) G12C, C51S, C80L, C118S
Kind of assay: Mass Spectrometry Reactivity Assay (MSRA), covalent adduct with kRas G12C. The class given is binding. Particulars: 0.5 h at room temperature; 5 μM KRas protein; typical final concentration of the compounds 10 μM. How it is done: Mass Spectrometry Reactivity Assay (MSRA)
Compounds presented in the present invention covalently bind to kRas G12C using MSRA to detect a covalent adduct of the exemplary compound and kRas G12C. GDP-loaded kRas (1-169) G12C, C51S, C80L, C118S were diluted in the protein assay buffer 25 mM Hepes pH7.5, 200 mM NaCl, 5% glycerol to concentration of 5 μM and 20 μl of protein was transferred into 96-well plate. […] See K-Ras(G12C) inhibitors allosterically control GTP affinity and effector interactions; Ostrem J M, Peters U, Sos M L, Wells J A, Shokat K M; Nature. 2013, Nov. 28; 503(7477):548-51.
Exemplary compounds dissolved in DMSO were diluted 100-fold into solution containing 20 μl of 5 μM KRas protein in the 96-well plate to initiate the reaction. Mosquito (TPP Lab tech) liquid handling robot was used to add compounds to protein solution. Typical final concentration of the compounds was 10 μM. The plates were placed on a shaker for 1 min at RT, sealed and incubated at room temperature for specified time period. 5 μl of reaction mix was added to 10 μl of 0.2% formic acid stop solution and mixed well. Typical end points were 30, 120, 600 and 1440 min.
Data were collected using Waters Acquity H-class UPLC system/Xevo G2-XS TOF mass spectrometer. The protein was injected in their liquid phase onto a Bruker Microtrap protein column TR1/15109/03. The following buffers were used to set LC gradient: Buffer A: 0.2% formic acid H20; B: 0.2% formic acid CAN. The protein was eluted from the column using the following LC Gradient: 0-0.4 min, 10% B to 30% B; 0.4 min-2.4 min, to 90% B, 2.5 min, 10% B, 3 min, 10% B. Initial data analysis was performed using MaxEnt software right after data acquisition.
The standard auto processing function was used to define percentage of unmodified and modified kRas protein using MexEnt software right after data acquisition. The highest peak was defined as 100% while smaller peak as assigned the number defined by autoprocessing function. The percent of modification corresponding to modified with exemplary compound and unmodified KRas GDP-loaded kRas (1-169) G12C, C51S, C80L, C118S were exported to Xcel data analysis software.
The percent of modified protein at the defined concentration of exemplary compound was calculated using the following formula: % mod=Num of modified peak/Sum of modified+unmodified.

Assay [2] concerns the target T2, KRAS G12C in MiaPaCa2 cells (Homo sapiens, UniProt P01116, G12C).
T2 construct: endogenous in cells; host or cells: MiaPaCa2
Kind of assay: MiaPaCa2 Cell Activity Assay (Raf-1 RBD capture of active Ras, MSD). The class given is cell-based. The conditions noted are these: MIAPaCa-2 cells, 6 hours treatment; assay limit is 30.0 μM. How it is done:
MiaPaCa2 Cell Activity Assay
Compounds presented in the present invention lead to the accumulation of the GDP bound Ras upon treatment of human cancer cell line.
The accumulation of the GDP-bound KRAS G12C in cellular environment was measured based on the principle that KRAS G12C only binds to its downstream kinase; Raf-1 (MAP Kinase Kinase Kinase), when in its active-GTP bound state. In this state, Ras binded to a domain of Raf-1 kinase referred to as the Ras Binding Domain (RBD).
MiaPaCa2 cells were grown in DMEM medium (Gibco 11995) supplemented with 10% fetal bovine serum and 1% penicillin/streptomycin. Cells were seeded in 96-well tissue culture plates at a density of 40,000 cells/well and allowed to attach for 16-24 hours. Test compounds were prepared as a 10 mM stock in DMSO and serially diluted in 100% DMSO using a 3-fold dilution scheme. An intermediate 5× concentrated plate in complete growth medium was made and 25 μl/well was added to the 100 μl of cells for a final concentration of 0.1% DMSO. Each concentration of exemplary compound was tested in duplicate. The negative control wells were cells with control inhibitor at 10 μM, and the positive control wells were cells without drugs, DMSO only. Plates were incubated for 6 hours at 37° C., 5% CO2. Following treatment, cells were washed 3× with ice-cold PBS and 100 μl/well ice-cold 1× Assay/Lysis. Buffer with protease inhibitors was added (25 mM HEPES, pH 7.5, 150 mM NaCl, 1% NP-40, 10 mM MgCl2, 1 mM EDTA, 2% Glycerol). Following lysis samples were frozen at −80° C.
Raf-1 RBD (LJIC-1988A1) was diluted to 100 ng/well in PBS and 5 μl/well was spot coated onto MSD high bind SECTOR plates (L15XB). Plates were incubated at room temperature for 1 hour on an orbital shaker. Plates were washed with PBS/0.05% Tween-20 and 50 μl/well of thawed lysate samples were added, followed by 50 μl of 1% MSD Blocker A in PBS/0.05% Tween-20 (R93BA). Plates were incubated for 1 hour on an orbital shaker and washed with PBS/0.05% Tween-20. 25 μl/well of Anti-pan-Ras Antibody (Cell Biolabs 244003) diluted 1:3000 was added in 1% MSD Blocker A solution and plates were incubated for 1 hour on an orbital shaker and washed with PBS/0.05% Tween-20. SULFO-TAG goat anti-mouse secondary antibody (MSD R32AC) was diluted 1:500 in MSD Blocker A solution and added at 25 μL/well. Plates were incubated for 1 hour on an orbital shaker and washed with PBS/0.05% Tween-20. 150 μl/well of Read Buffer T (MSD R92TC) diluted 1:3 in H2O was added and plates were read on a Meso Scale Discovery Sector Imager S600.
KRAS signal was normalized to maximum inhibition and DMSO control values, and IC50 values were generated using a 4 parameter fit of the dose response curve. The decrease in IC50 reflects that the exemplary compound lead to a higher level of accumulation of GDP-bound KRAS G12C than another exemplary compounds at specific timepoint of treatment of cancer cell line.

As for `C=CC(=O)N1CCN(c2nc(OCCOC)nc3c2CCC(c2c(C)ccc4[nH]ncc24)C3)CC1` (stereo not shown) [Example C1, 1-{4-[2-(2-methoxyethoxy)-7-(5-methyl-1H-indazol-4-yl)-5,6,7,8-tetrahydroquinazolin-4-yl]piperazin-1-yl}prop-2-en-1-one], in assay [1], the “% Modification (0.5 h)” value came to 19%. The compound further came in with an IC50 in assay [2] of 9.84 µM.

Consider `C=CC(=O)N1CCN(c2ncnc3c2C[C@@H](CO)[C@H](c2c(C)ccc4[nH]ncc24)C3)CC1` (relative stereo) [Example A7, 1-{4-[(6R,7R)-rel-6-(hydroxymethyl)-7-(5-methyl-1H-indazol-4-yl)-5,6,7,8-tetrahydroquinazolin-4-yl]piperazin-1-yl}prop-2-en-1-one], for which the “% Modification (0.5 h)” value in assay [1] is 11%. In addition, the IC50 in assay [2] was found to be 29.3 µM.

Regarding `C=CC(=O)N1CCN(c2nc(N3CC(N(C)C)C3)nc3c2C[C@H](C)[C@@H](c2c(Cl)c(C)cc4[nH]ncc24)C3)CC1` [Example F8, 1-(4-{(6S,7S)-7-(5-chloro-6-methyl-1H-indazol-4-yl)-2-[3-(dimethylamino)azetidin-1-yl]-6-methyl-5,6,7,8-tetrahydroquinazolin-4-yl}piperazin-1-yl)prop-2-en-1-one], the “% Modification (0.5 h)” value in assay [1] is given as 12%. This compound came in with an IC50 in assay [2] of 22.9 µM.

Regarding `C=CC(=O)N1CCN(c2nc(N3CC(N(C)C)C3)nc3c2C[C@@H](C)[C@H](c2c(C)c(Cl)cc4[nH]ncc24)C3)C[C@H]1C` [Example F13, 1-[(2R)-4-{(6R,7R)-7-(6-chloro-5-methyl-1H-indazol-4-yl)-2-[3-(dimethylamino)azetidin-1-yl]-6-methyl-5,6,7,8-tetrahydroquinazolin-4-yl}-2-methylpiperazin-1-yl]prop-2-en-1-one], in assay [1], the “% Modification (0.5 h)” value stood at 79%. Further, the 50% inhibitory concentration (IC50) in assay [2] turned out to be 0.113 µM.

`C=CC(=O)N1CCN(c2ncnc3c2CCC(c2c(C)ccc4[nH]ncc24)C3)CC1` (stereo not shown) [Example A1, 1-{4-[7-(5-methyl-1H-indazol-4-yl)-5,6,7,8-tetrahydroquinazolin-4-yl]piperazin-1-yl}prop-2-en-1-one]: the “% Modification (0.5 h)” value in assay [1] was 14%. This compound also came in with a concentration for half-maximal inhibition (IC50) in assay [2] of 7.86 µM.

As for `C=CC(=O)N1CCN(c2nc(OCCCO)nc3c2CCC(c2c(C)ccc4[nH]ncc24)C3)CC1` (stereo not shown) [Example C4, 1-{4-[2-(3-hydroxpropoxy)-7-(5-methyl-1H-indazol-4-yl)-5,6,7,8-tetrahydroquinazolin-4-yl]piperazin-1-yl}prop-2-en-1-one], the “% Modification (0.5 h)” value in assay [1] was 34%. In addition, 3.61 µM corresponded to half-maximal inhibition in assay [2] (IC50).

In the case of `C=CC(=O)N1CCN(c2ncnc3c2C[C@@H](C)[C@H](c2c(Cl)c(C)cc4[nH]ncc24)C3)CC1` (relative stereo) [Example A8, 1-{4-[(6R,7R)-rel-7-(5-chloro-6-methyl-1H-indazol-4-yl)-6-methyl-5,6,7,8-tetrahydroquinazolin-4-yl]piperazin-1-yl}prop-2-en-1-one], the “% Modification (0.5 h)” value in assay [1] turned out to be 54%. In assay [2], this compound had an IC50 of 0.462 µM.

On to `C=CC(=O)N1CCN(c2ncnc3c2C[C@@H](C)[C@H](c2c(C)ccc4[nH]ncc24)C3)CC1` (relative stereo) [Example A4, 1-{4-[(6R,7R)-rel-6-methyl-7-(5-methyl-1H-indazol-4-yl)-5,6,7,8-tetrahydroquinazolin-4-yl]piperazin-1-yl}prop-2-en-1-one], for which, in assay [1], the “% Modification (0.5 h)” value is on record as 53%. Also, in assay [2], it took 1.3 µM to reach half-maximal inhibition (IC50).

Take `C=CC(=O)N1CCN(c2nc(N3CC(NC)C3)nc3c2C[C@@H](C)[C@H](c2c(C)c(Cl)cc4[nH]ncc24)C3)CC1` [Example H1, 1-(4-{(6R,7R)-7-(6-chloro-5-methyl-1H-indazol-4-yl)-6-methyl-2-[3-(methylamino)azetidin-1-yl]-5,6,7,8-tetrahydroquinazolin-4-yl}piperazin-1-yl)prop-2-en-1-one]: half-maximal inhibition in assay [2] (IC50) required 0.178 µM.

On to `C=CC(=O)N1CCN(c2ncnc3c2CC[C@H](c2cc(O)cc4ccccc24)C3)CC1` (single isomer, unassigned) [Example G3], for which the “% Modification (0.5 h)” value in assay [1] is 73%. This compound registered a concentration for half-maximal inhibition (IC50) in assay [2] of 1.11 µM.

On to `C=CC(=O)N1CCN(c2ncnc3c2CC[C@H](c2c(C)ccc4[nH]ncc24)C3)CC1` (single isomer, unassigned) [Example A3], for which, in assay [1], the “% Modification (0.5 h)” value amounted to 39%. In addition, the IC50 in assay [2] was 4.15 µM.

Regarding `C=CC(=O)N1CCN(c2nc(OCCO)nc3c2CCC(c2c(C)ccc4[nH]ncc24)C3)CC1` (stereo not shown) [Example C3, 1-{4-[2-(2-hydroxyethoxy)-7-(5-methyl-1H-indazol-4-yl)-5,6,7,8-tetrahydroquinazolin-4-yl]piperazin-1-yl}prop-2-en-1-one], the “% Modification (0.5 h)” value in assay [1] is on record as 15%. The compound also registered a concentration for half-maximal inhibition (IC50) in assay [2] of 12 µM.

As for `C=CC(=O)N1CCN(c2nc(N3CCN(C)CC3)nc3c2C[C@@H](C)[C@H](c2c(C)ccc4[nH]ncc24)C3)CC1` (relative stereo) [Example F4], the “% Modification (0.5 h)” value in assay [1] amounted to 22%. Besides, the midpoint of inhibition in assay [2], the IC50, lay at 4.29 µM.

Take `C=CC(=O)N1CC2(C1)CN(c1ncnc3c1CCC(c1c(C)ccc4[nH]ncc14)C3)C2` (stereo not shown) [Example B1, 1-{6-[7-(5-methyl-1H-indazol-4-yl)-5,6,7,8-tetrahydroquinazolin-4-yl]-2,6-diazaspiro[3.3]hept-2-yl}prop-2-en-1-one]: the “% Modification (0.5 h)” value in assay [1] turned out to be 9%. Also, the half-maximal inhibitory concentration (IC50) in assay [2] worked out at 18.7 µM.

For the compound `C=CC(=O)N1CCN(c2ncnc3c2C[C@@H](C)[C@H](c2c(C)c(Cl)cc4[nH]ncc24)C3)CC1` (relative stereo) [Example A9, 1-{4-[(6R,7R)-rel-7-(6-chloro-5-methyl-1H-indazol-4-yl)-6-methyl-5,6,7,8-tetrahydroquinazolin-4-yl]piperazin-1-yl}prop-2-en-1-one], the “% Modification (0.5 h)” value in assay [1] stood at 77%. This compound also had a half-inhibitory concentration (IC50) in assay [2] of 0.155 µM.

Regarding `C=CC(=O)N1CCN(c2ncnc3c2CCC(c2c(C)ccc4[nH]ncc24)C3)CC1C` (stereo not shown) [Example B3, 1-{2-methyl-4-[7-(5-methyl-1H-indazol-4-yl)-5,6,7,8-tetrahydroquinazolin-4-yl]piperazin-1-yl}prop-2-en-1-one], in assay [1], the “% Modification (0.5 h)” value turned out to be 7%. Besides, the IC50 in assay [2] came to 28.4 µM.

A word on the IC50: it is the concentration that inhibits the measured activity by half. Lower therefore signals greater potency.

These data come from US10590115B2, “Tetrahydroquinazoline derivatives useful as anticancer agents” (PFIZER INC., priority 2018, dated 2020).
